Structures can show the parent of a compound that is named as a salt. Where two headings read alike, the source gives them in different places.
Key:
[1] = tested on: vagotomized rats; experiment: heart rate lowering effect on vagotomized rats; format: in vivo; settings: Rattus norvegicus, iv, 0.5 h, read-out: D50 (dose which lowers the heart rate by 50 beats/min.)
Experimental: were tested as follows with regard to their heart rate lowering effect on vagotomized rats:
The animals were vagotomized and received a tracheal cannula; a polyethylene catheter was placed into the jugular vein. For measuring the ECG, needle electrodes were clamped to the extremities. During the test the body temperature of the animals was kept constant (34° C.).
After balancing out a constant starting heart rate (determined by counting the heart beats from the ECG), the test compound was intravenously administered to the animal. 30 minutes later the type was measured again.
Each compound was tested at 3 dosages administered to each of 6 animals; only one compound and dose per animal.
The average of the 6 single values per dose (Δ heart rate in beats/min.) was determined, and the dose activity curves were prepared, from which the D50 (dose which lowers the heart rate by 50 beats/min.) was determined:

[2] = acute toxicity in mice after administration per os (Litchfield and Wilcoxon); settings: mouse, in vivo, po, mice of both sexes, deaths within 14 days
Experimental: The acute toxicity was determined in mice of both sexes with an average body weight of 20 gm after administration per os. From the percentage of the animals which died within 14 days after the administration of various doses, the LD50 was determined according to the method of Litchfield and Wilcoxon (J. Pharmacol. exp. Ther. 96, 99 (1949): […]

[3] = tested on: patients with angina pectoris; experiment: exercise test on bicycle ergometer in patients with angina pectoris, crossover single-blind against placebo (antianginal activity); format: in vivo
Experimental: The antianginal activity of
was determined in patients with angina pectoris as follows:
11 Patients with clinical and electrocardiographic symptoms of coronary insufficiency were selected for a crossover comparative single-blind study of compound A against placebo. Only those patients were allocated to one of the 2 treatments who complained of precordial pain at the same workload on 3 different days during the run-in period. In order to avoid carry-over effects the sequence of treatment was A placebo in every patient. 30 minutes after the injection of the test substance the patients were exercised on a bicycle ergometer. They started with a workload of 25 watts, which was increased every 3 minutes by 25 watts until the onset of pain. The heart rate and the blood pressure were registered every minute. The heart rate was determined by means of an ECG; the measurement of the blood pressure was carried out according to Riva-Rocci always by the same medical assistant.
The following parameters were evaluated:
1. Time until the onset of pain
2. Heart rate at the onset of pain
3. Blood pressure at the onset of pain
4. The workload performed, resulting from the sum of the products multiplied by the watts per minute (W×min).
5. The maximum workload, which results from the watts of the last complete exercise period (lasting 3 minutes) and the watts of the next unfinished period (watts)
6. The pressure frequency product as index for the oxygen consumption, which was calculated from the product of the heart rate and of the systolic blood pressure.
Since some patients reported pain without depression of the ST segment, ST segment was not evaluated

[4] = i.v., vagotomized rats, 30 minutes after administration, 3 dosages, 6 animals each
[5] = at the moment of the highest comparable workload, 30 minutes after injection
[6] = at the onset of pain, 30 minutes after injection

## C=CCN1CCc2nc(N)oc2CC1 [B, 2-Amino-6-allyl-4,5,7,8-tetrahydro-6H-oxoazolo[5,4-d]azepine dihydrochloride]
[1]; [4]
  ED (50 beats/min): 0.1 mg/kg

## CCN1CCc2nc(N)sc2CC1.Cl.Cl [C, 2-Amino-6-ethyl-4,5,7,8-tetrahydro-6H-thiazolo[5,4-d]azepine dihydrochloride]
[2]
  LD50 at 336 h: > 1500 mg/kg
[1]; [4]
  ED (50 beats/min): 0.032 mg/kg

## CCN1CCc2nc(N)oc2CC1.Cl.Cl [Compound A, 2-Amino-6-ethyl-4,5,7,8-tetrahydro-6H-oxazolo[5,4-d]azepine dihydrochloride]
[2]
  LD50 at 336 h: 2210 mg/kg
[3]; 30 minutes after injection, control 6 minutes on the average
  increase of duration of exercise performance (time patients could be exercised longer) vs control: 2 min
[3]; at the highest comparable workload, 30 minutes after injection
  reduction of heart rate at the highest comparable workload: 12 beats/min
[3]; [5]
  diastolic blood pressure at the highest comparable workload: unchanged
  reduction of systolic blood pressure at the highest comparable workload: 19 mm Hg
[3]; [6]
  diastolic blood pressure at the onset of pain: unchanged
  increase of heart rate at the onset of pain: 2 beats/min
  reduction of systolic blood pressure at the onset of pain: 8 mm Hg
[3]; last complete minute before stopping, direction not given
  difference of heart rate between placebo and compound A during the last complete minute before stopping: 3 beats/min
[3]; last minute before stopping
  reduction of systolic blood pressure over placebo during the last minute before stopping: 9 mm Hg
[3]; last minute before stopping, placebo 313
  product of pressure frequency during the last minute before stopping: 295
[3]; moment of the highest comparable strain, placebo 310
  product of pressure frequency at the highest comparable strain: 258
[3]; placebo 76 watts
  maximum work (maximum workload): 87 watts
[3]; placebo 495 W×min
  average work performed until workload was stopped: 627 W×min
[3]; summary in words
  O2 consumption of the heart (concluded from rate/pressure product): diminishes O2 consumption
  effect on duration of exercise and exercise capacity: increases the duration of exercise and exercise capacity
[1]
  ED (50 beats/min): 0.5 mg/kg

## CCCN1CCc2nc(N)sc2CC1.Cl.Cl [Compound D, 2-Amino-6-n-propyl-4,5,7,8-tetrahydro-6H-thiazolo[5,4-d]azepine dihydrochloride]
[1]; [4]
  ED (50 beats/min): 0.012 mg/kg

## C=CCN1CCc2nc(N)sc2CC1.Cl.Cl [E, 2-Amino-6-allyl-4,5,7,8-tetrahydro-6H-thiazolo[5,4-d]azepine dihydrochloride]
[2]
  LD50 at 336 h: 455 mg/kg
[1]; [4]
  ED (50 beats/min): 0.042 mg/kg

## Cl.Cl.Nc1nc2c(s1)CCN(CCO)CC2 [F, 2-Amino-6-(2-hydroxy-ethyl)-4,5,7,8-tetrahydro-6H-thiazolo[5,4-d]azepine dihydrochloride]
[2]
  LD50 at 336 h: ~1000 mg/kg
[1]; [4]
  ED (50 beats/min): 0.037 mg/kg

## Nc1nc2c(s1)CCN(Cc1ccc(Cl)cc1)CC2 [G, 2-Amino-6-(4-chloro-benzyl)-4,5,7,8-tetrahydro-6H-thiazolo[5,4-d]azepine dihydrocloride]
[2]
  LD50 at 336 h: 905 mg/kg
[1]; [4]
  ED (50 beats/min): 1.4 mg/kg

Source: patent US4259342A, “Antianginal treatment with azepine derivatives” (priority 1978, dated 1981)
